This note sets out measurements from patent US8772283B2, “Imidazo-oxazine compound or salt thereof” (Taiho Pharmaceutical Co., Ltd., priority 2011, dated 2014).

Each structure is given as a SMILES string.

The target of one experiment is human AKT2 (Homo sapiens (Human), UniProt P31751). Put plainly: AKT2 kinase activity inhibition (TR-FRET, biotinylated Crosstide substrate). In kind it is biochemical. The following applies: preincubation 120 min at 25° C.; ATP 150 μM; Crosstide 500 nM. A digest of the protocol:
(§1)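 Middle-T-tagged human AKT1 or AKT2, Sf9-expressed, affinity-purified and PDK1-activated, was preincubated 120 min at 25 °C with compound in 15 mM Tris-HCl pH 7.5, 0.01% Tween-20, 2 mM DTT. Kinase reaction then ran 60 min with 500 nM biotin-Crosstide, 10 mM MgCl2 and 150 μM ATP before EDTA stop. IC50 came from the Eu/APC TR-FRET 665/620 nm ratio.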
For orientation: Time-resolved FRET reads energy transfer from a long-lived donor to a nearby acceptor.

In the next experiment the target is human AKT1 (Homo sapiens (Human), UniProt P31749). The experiment is described as follows: AKT1 kinase activity inhibition (TR-FRET, biotinylated Crosstide substrate). The format is biochemical. The following applies: preincubation 120 min at 25° C.; ATP 150 μM; Crosstide 500 nM. In a few lines: as §1
Sequence of human AKT1 (P31749 whole entry): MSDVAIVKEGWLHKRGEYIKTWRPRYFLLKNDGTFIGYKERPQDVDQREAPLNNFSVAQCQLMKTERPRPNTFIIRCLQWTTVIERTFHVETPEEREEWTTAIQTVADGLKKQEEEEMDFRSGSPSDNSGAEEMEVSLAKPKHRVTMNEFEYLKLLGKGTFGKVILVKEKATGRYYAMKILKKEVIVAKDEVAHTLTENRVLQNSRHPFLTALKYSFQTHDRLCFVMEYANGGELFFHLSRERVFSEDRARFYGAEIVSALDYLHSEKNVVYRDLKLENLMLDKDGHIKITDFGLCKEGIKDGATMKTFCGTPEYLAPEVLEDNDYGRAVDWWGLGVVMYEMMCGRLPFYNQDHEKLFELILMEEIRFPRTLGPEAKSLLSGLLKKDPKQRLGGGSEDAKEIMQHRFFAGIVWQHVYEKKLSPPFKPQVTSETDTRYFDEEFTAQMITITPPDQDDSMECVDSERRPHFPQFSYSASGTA
Experiment [1] deals with AKT Ser473 phosphorylation. The experiment is described as follows: Phosphorylated AKT (Ser473) inhibitory activity in cultured cell A2780 (Meso Scale Discovery assay). The format is cell-based. The following applies: A2780 cells, 3 hours treatment; average±standard deviation of three independent runs. As to the method:
(§2) To evaluate the inhibitory activity of the above compounds against AKT activity, AKT Ser 473 phosphorylation and phosphorylation of S6 ribosomal protein (S6RP) (a downstream factor of Akt signal) at Ser240/Ser244, which serve as indices for the activation status of AKT, were measured in extracts of cultured cells which had been treated with the above compounds. For the measurement, assays (manufactured by Meso Scale Discovery) utilizing electrochemiluminescence based on the ELISA principle were used for both AKT Ser473 and S6RP Ser240/Ser244.
(§3) In 10% FBS-containing RPMI1640 medium (Invitrogen), ovarian cancer-derived A2780 cells in the logarithmic growth phase were seeded at 4.5×10^4 cells/150 μL/well into polylysine coated 96-well flat-bottom plates, and cultured for one day in an incubator at 5% CO2, 37° C., and 100% humidity.
(§4) Each compound of the present invention was supplied as a stock solution prepared at a concentration of 10 mM in DMSO. Using this solution, a dilution series was prepared in DMSO solvent at 200-fold of the final concentrations (10, 3, 1, 0.3, 0.1, 0.03, 0.01, 0.003 μM). The day after the cells were seeded, the compound dilution series at a 200-fold concentration was diluted 50-fold in medium for cell culture. To each well of the aforementioned A2780 cell culture plates, 50 μL of the diluted compound dilution series was added. The plates were then placed back in the incubator, and the culture was continued for 3 hours at 5% CO2, 37° C., and 100% humidity.
(§5) Meso Scale Discovery's 96-Well Multi-Spot Phospho-AKT (Ser473) Assay (K151CAA-3) and Phospho (Ser240/244)/Total S6RP Assay (K11139D-2) were used. In advance, a necessary amount of the supplied cell extract buffer was dispensed, and protease inhibitor cocktail and protein phosphatase inhibitor cocktail were added thereto, and kept cold on ice. The culture plates of the cells cultured with the compounds for 3 hours were taken out and the medium was removed. 100 μL of the cell extract buffer kept cold was added per well, followed by extraction by shaking at 300 r.p.m. for 1 hour using a plate shaker while maintaining a temperature of 4° C. Using the obtained extracts at 40 μL/well for the Phospho-AKT (Ser473) Assay and at 15 μL/well for the Phospho(Ser240/244)/Total S6RP Assay, reactions were conducted at 4° C. overnight with shaking at 300 r.p.m. according to the document attached to the kits. The next day, after the wells were washed three times with the supplied wash buffer, 50 μL/well of SULFO-TAG™ sandwich antibody solution was added, and reactions were carried out at room temperature for 1 hour. The wells were washed with the wash buffer three times, and 150 μL of the supplied Read Buffer T was added to each well. The amounts of phosphorylation of AKT and S6RP were measured by a SECTOR Imager 6000 plate reader (manufactured by Meso Scale Discovery) within 30 minutes of the Read Buffer T addition.
(§6) The extraction buffer-only background was subtracted from all of the measurement values, and AKT and S6RP phosphorylation signals in the control cell extract treated with only DMSO were defined as 100%. The compound concentrations and the levels of phosphorylated AKT and S6PR (expressed as a percentage relative to the control) in each concentration were plotted, and IC50 concentration (nM) that achieves 50% inhibition of the control was determined.

For experiment [2], the system named is S6 ribosomal protein (S6RP) Ser240/Ser244 phosphorylation. Put plainly: Phosphorylated S6RP (Ser240/Ser244) inhibitory activity in cultured cell A2780 (Meso Scale Discovery assay). The format is cell-based. The following applies: A2780 cells, 3 hours treatment; average±standard deviation of three independent runs. As to the method:
as §2, §3, §4, §5, §6

Sequence of human AKT2 (P31751 whole entry): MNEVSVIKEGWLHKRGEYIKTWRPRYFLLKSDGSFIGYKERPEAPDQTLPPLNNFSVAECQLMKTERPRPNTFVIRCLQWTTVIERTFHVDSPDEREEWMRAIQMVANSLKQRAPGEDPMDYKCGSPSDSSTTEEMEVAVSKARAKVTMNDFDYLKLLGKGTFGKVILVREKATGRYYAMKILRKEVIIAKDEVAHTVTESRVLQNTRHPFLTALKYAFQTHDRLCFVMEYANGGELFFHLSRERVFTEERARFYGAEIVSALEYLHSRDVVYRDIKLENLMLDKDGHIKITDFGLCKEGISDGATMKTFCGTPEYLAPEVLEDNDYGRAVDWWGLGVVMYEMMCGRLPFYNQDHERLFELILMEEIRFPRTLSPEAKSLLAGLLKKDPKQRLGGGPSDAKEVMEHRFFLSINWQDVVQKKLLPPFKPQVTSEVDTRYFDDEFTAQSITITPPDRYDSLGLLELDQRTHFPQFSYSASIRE

One may read the IC50 as the concentration that gives 50% inhibition. Low values mean greater potency, high ones weaker potency. `C[C@]1(O)C[C@@](N)(c2ccc(-c3nc4n(c3-c3ccccc3)COc3ccc(-c5ccn[nH]5)cc3-4)cc2)C1` [Example 48, trans-3-amino-1-methyl-3-(4-(3-phenyl-9-(1H-pyrazol-5-yl)-5H-benzo[e]imidazo[1,2-c][1,3]oxazin-2-yl)phenyl)cyclobutanol]: the IC50 was 0.32 nM on human AKT2, 0.8 nM on human AKT1, 48 ± 5 nM in experiment [1] and 86 ± 27 nM in experiment [2].
Taken in the same sequence, the figures for `COc1ccc2c(c1)OCn1c-2nc(-c2ccc([C@]3(N)C[C@@](O)(C4CC4)C3)cc2)c1-c1ccccc1` [Example 18, trans-3-amino-1-cyclopropyl-3-(4-(8-methoxy-3-phenyl-5H-benzo[e]imidazo[1,2-c][1,3]oxazin-2-yl)phenyl)cyclobutanol] were 0.6 nM, 3.7 nM, 52 ± 6 nM and 58 ± 10 nM.
Take `N[C@]1(c2ccc(-c3nc4n(c3-c3ccccc3)COc3cnccc3-4)cc2)C[C@](O)(C2CC2)C1` [Example 35, trans-3-amino-1-cyclopropyl-3-(4-(3-phenyl-5H-imidazo[1,2-c]pyrido[4,3-e][1,3]oxazin-2-yl)phenyl)cyclobutanol]: the IC50 is 0.48 nM at human AKT2, 1.6 nM at human AKT1, 24 ± 3 nM in experiment [1] and 33 ± 8 nM in experiment [2].
For the molecule `N[C@]1(c2ccc(-c3nc4n(c3-c3ccccc3)COc3cccc(F)c3-4)cc2)C[C@](O)(C2CC2)C1` [Example 1, trans-3-amino-1-cyclopropyl-3-(4-(10-fluoro-3-phenyl-5H-benzo[e]imidazo[1,2-c][1,3]oxazin-2-yl)phenyl)cyclobutanol], the IC50 against human AKT2 is 0.29 nM; against human AKT1, 3.7 nM; in experiment [1], 24 ± 1 nM; in experiment [2] it was 40 ± 13 nM.
In the same order, the values of `CC[C@]1(O)C[C@@](N)(c2ccc(-c3nc4n(c3-c3ccccc3)COc3cccnc3-4)cc2)C1` [Example 30, trans-3-amino-1-ethyl-3-(4-(3-phenyl-5H-imidazo[1,2-c]pyrido[2,3-e][1,3]oxazin-2-yl)phenyl)cyclobutanol] are 4.6 nM, 33 nM, 104 ± 27 nM and 174 ± 47 nM.
For the molecule `N[C@]1(c2ccc(-c3nc4n(c3-c3ccccc3)COc3ccccc3-4)cc2)C[C@](O)(C2CC2)C1` [Example 11, trans-3-amino-1-cyclopropyl-3-(4-(3-phenyl-5H-benzo[e]imidazo[1,2-c][1,3]oxazin-2-yl)phenyl)cyclobutanol], the IC50 was found to be 1 nM against human AKT2, 3.9 nM at human AKT1, 63 ± 15 nM in experiment [1] and 83 ± 27 nM in experiment [2].
